Measurements from PubChem BioAssay (NCI).
Several values for one entry are separate records, joined by “and”; a condition that tells them apart may be missing. Identical values can stand only once.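 A five-concentration, 48-hour dose response in 96-well plates underlies each endpoint, interpolated linearly between surrounding concentrations. Abbreviation: GI50, concentration required for 50% inhibition of growth. TGI: concentration producing complete growth inhibition.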

What was measured:
Experiment in all cases: NCI tumour cell line growth inhibition, 48 h
A549 NSCLC = system: A549 NSCLC
ACHN renal = system: ACHN renal
MALME-3M melanoma = system: MALME-3M melanoma
DLD-1 colon = system: DLD-1 colon
MOLT-4 leukemia = system: MOLT-4 leukemia
SW-620 colon = system: SW-620 colon
SNB-19 CNS = system: SNB-19 CNS
DMS 114 small cell lung = system: DMS 114 small cell lung
HL-60(TB) leukemia = system: HL-60(TB) leukemia
SNB-75 CNS = system: SNB-75 CNS
SF-268 CNS = system: SF-268 CNS
M19-MEL melanoma = system: M19-MEL melanoma
RXF-631 renal = system: RXF-631 renal
SR leukemia = system: SR leukemia
CAKI-1 renal = system: CAKI-1 renal
HCT-116 colon = system: HCT-116 colon
OVCAR-3 ovarian = system: OVCAR-3 ovarian
HOP-92 NSCLC = system: HOP-92 NSCLC
RPMI-8226 leukemia = system: RPMI-8226 leukemia
LXFL 529 NSCLC = system: LXFL 529 NSCLC
HOP-62 NSCLC = system: HOP-62 NSCLC
K-562 leukemia = system: K-562 leukemia
XF 498 CNS = system: XF 498 CNS
NCI-H522 lung = system: NCI-H522 lung
CCRF-CEM leukemia = system: CCRF-CEM leukemia
A498 renal = system: A498 renal
NCI-H226 lung = system: NCI-H226 lung
NCI-H460 lung = system: NCI-H460 lung
TK-10 renal = system: TK-10 renal
SK-MEL-5 melanoma = system: SK-MEL-5 melanoma
SK-MEL-28 melanoma = system: SK-MEL-28 melanoma
HT29 colon = system: HT29 colon
RXF 393 renal = system: RXF 393 renal
DMS 273 small cell lung = system: DMS 273 small cell lung
HCT-15 colon = system: HCT-15 colon
786-0 renal = system: 786-0 renal
COLO 205 colon = system: COLO 205 colon
SK-MEL-2 melanoma = system: SK-MEL-2 melanoma
OVCAR-4 ovarian = system: OVCAR-4 ovarian
U251 CNS = system: U251 CNS
SF-539 CNS = system: SF-539 CNS
LOX IMVI melanoma = system: LOX IMVI melanoma
OVCAR-5 ovarian = system: OVCAR-5 ovarian
KM20L2 colon = system: KM20L2 colon
HCC-2998 colon = system: HCC-2998 colon
UACC-62 melanoma = system: UACC-62 melanoma
EKVX NSCLC = system: EKVX NSCLC
M14 melanoma = system: M14 melanoma
SN12C renal = system: SN12C renal
UO-31 renal = system: UO-31 renal
IGROV1 ovarian = system: IGROV1 ovarian
SK-OV-3 ovarian = system: SK-OV-3 ovarian
SNB-78 CNS = system: SNB-78 CNS
UACC-257 melanoma = system: UACC-257 melanoma
NCI-H23 lung = system: NCI-H23 lung
SF-295 CNS = system: SF-295 CNS
HOP-18 NSCLC = system: HOP-18 NSCLC
OVCAR-8 ovarian = system: OVCAR-8 ovarian
KM12 colon = system: KM12 colon
SN12K1 renal = system: SN12K1 renal
MCF7 breast = system: MCF7 breast
P388 leukemia = system: P388 leukemia
P388/ADR leukemia = system: P388/ADR leukemia
NCI/ADR-RES ovarian = system: NCI/ADR-RES ovarian

N#Cc1cccnc1Cl
TGI (A549 NSCLC): > 100 µM | TGI (ACHN renal): > 100 µM | TGI (MALME-3M melanoma): > 100 µM | TGI (DLD-1 colon): > 100 µM | TGI (MOLT-4 leukemia): > 100 µM | TGI (SW-620 colon): > 100 µM | TGI (SNB-19 CNS): > 100 µM | TGI (DMS 114 small cell lung): > 100 µM | TGI (HL-60(TB) leukemia): > 100 µM | TGI (SNB-75 CNS): > 100 µM | TGI (SF-268 CNS): > 100 µM | TGI (M19-MEL melanoma): > 100 µM | TGI (RXF-631 renal): > 100 µM | TGI (SR leukemia): > 100 µM | TGI (CAKI-1 renal): > 100 µM | TGI (HCT-116 colon): > 100 µM | TGI (OVCAR-3 ovarian): > 100 µM | TGI (HOP-92 NSCLC): > 100 µM | TGI (RPMI-8226 leukemia): > 100 µM | TGI (LXFL 529 NSCLC): > 100 µM | TGI (HOP-62 NSCLC): > 31.6 µM | TGI (K-562 leukemia): > 100 µM | TGI (XF 498 CNS): > 100 µM | TGI (NCI-H522 lung): > 100 µM | TGI (CCRF-CEM leukemia): > 100 µM | TGI (A498 renal): > 100 µM | TGI (NCI-H226 lung): > 100 µM | TGI (NCI-H460 lung): > 100 µM | TGI (TK-10 renal): > 100 µM | TGI (SK-MEL-5 melanoma): > 100 µM | TGI (SK-MEL-28 melanoma): > 100 µM | TGI (HT29 colon): > 100 µM | TGI (RXF 393 renal): > 100 µM | TGI (DMS 273 small cell lung): > 100 µM | TGI (HCT-15 colon): > 100 µM | TGI (786-0 renal): > 100 µM | TGI (COLO 205 colon): > 100 µM | TGI (SK-MEL-2 melanoma): > 100 µM | TGI (OVCAR-4 ovarian): > 100 µM | TGI (U251 CNS): > 100 µM | TGI (SF-539 CNS): > 100 µM | TGI (LOX IMVI melanoma): > 100 µM | TGI (OVCAR-5 ovarian): > 100 µM | TGI (KM20L2 colon): > 100 µM | TGI (HCC-2998 colon): > 100 µM | TGI (UACC-62 melanoma): > 100 µM | TGI (EKVX NSCLC): > 100 µM | TGI (M14 melanoma): > 100 µM | TGI (SN12C renal): > 100 µM | TGI (UO-31 renal): > 100 µM | TGI (IGROV1 ovarian): > 100 µM | TGI (SK-OV-3 ovarian): > 100 µM | TGI (SNB-78 CNS): > 100 µM | TGI (UACC-257 melanoma): > 100 µM | TGI (NCI-H23 lung): > 100 µM | TGI (SF-295 CNS): > 100 µM | TGI (HOP-18 NSCLC): > 100 µM | TGI (OVCAR-8 ovarian): > 100 µM | TGI (KM12 colon): > 100 µM

CCCSc1nc(COC(=O)NC)c(COC(=O)NC)n1C
TGI (A549 NSCLC): > 100 µM | TGI (ACHN renal): 72.3 µM | TGI (MALME-3M melanoma): > 100 µM | TGI (DLD-1 colon): > 100 µM | TGI (MOLT-4 leukemia): 56.6 µM and > 70 µM | TGI (SW-620 colon): > 100 µM | TGI (SNB-19 CNS): > 100 µM | TGI (DMS 114 small cell lung): > 100 µM | TGI (HL-60(TB) leukemia): 89.6 µM and > 100 µM | TGI (SNB-75 CNS): > 100 µM | GI50 (SF-268 CNS): 44.4 µM and > 100 µM | TGI (SF-268 CNS): > 100 µM | TGI (M19-MEL melanoma): > 100 µM | TGI (SN12K1 renal): > 100 µM | TGI (SR leukemia): > 100 µM | TGI (CAKI-1 renal): > 100 µM | TGI (MCF7 breast): > 100 µM | TGI (HCT-116 colon): > 100 µM | TGI (OVCAR-3 ovarian): > 100 µM | TGI (HOP-92 NSCLC): > 100 µM | TGI (RPMI-8226 leukemia): 57.4 µM and > 94.9 µM | TGI (LXFL 529 NSCLC): > 100 µM | TGI (HOP-62 NSCLC): > 100 µM | TGI (K-562 leukemia): > 100 µM | TGI (XF 498 CNS): > 100 µM | GI50 (NCI-H522 lung): 22.1 µM and 55.5 µM | TGI (NCI-H522 lung): 45.1 µM and > 100 µM | TGI (CCRF-CEM leukemia): 86.1 µM and > 64.3 µM | TGI (A498 renal): > 100 µM | TGI (NCI-H226 lung): > 100 µM | TGI (P388 leukemia): 54.8 µM | TGI (NCI-H460 lung): > 100 µM | TGI (P388/ADR leukemia): 61.8 µM | TGI (SK-MEL-5 melanoma): > 100 µM | TGI (SK-MEL-28 melanoma): > 100 µM | TGI (HT29 colon): > 100 µM | TGI (RXF 393 renal): > 100 µM | TGI (DMS 273 small cell lung): > 100 µM | TGI (HCT-15 colon): > 100 µM | TGI (786-0 renal): > 100 µM | TGI (COLO 205 colon): > 100 µM | TGI (SK-MEL-2 melanoma): > 100 µM | TGI (OVCAR-4 ovarian): > 100 µM | TGI (NCI/ADR-RES ovarian): > 100 µM | TGI (U251 CNS): > 100 µM | TGI (SF-539 CNS): > 100 µM | TGI (LOX IMVI melanoma): > 100 µM | TGI (OVCAR-5 ovarian): > 100 µM | TGI (KM20L2 colon): > 100 µM | TGI (HCC-2998 colon): > 100 µM | TGI (UACC-62 melanoma): > 100 µM | TGI (EKVX NSCLC): > 100 µM | TGI (M14 melanoma): > 100 µM | TGI (SN12C renal): > 100 µM | TGI (UO-31 renal): > 100 µM | TGI (IGROV1 ovarian): > 100 µM | TGI (SK-OV-3 ovarian): > 100 µM | TGI (SNB-78 CNS): > 100 µM | TGI (UACC-257 melanoma): > 100 µM | TGI (NCI-H23 lung): > 100 µM | TGI (SF-295 CNS): > 100 µM | TGI (HOP-18 NSCLC): > 100 µM | TGI (OVCAR-8 ovarian): > 100 µM | TGI (KM12 colon): > 100 µM
